From ChEMBL document CHEMBL4152186, “Recent advances in the search for novel 5-lipoxygenase inhibitors for the treatment of asthma” (Eur J Med Chem, 2018)

How the values were obtained:
[1] = molecular target: T1, Polyunsaturated fatty acid 5-lipoxygenase (Homo sapiens, UniProt P09917); assay: Inhibition of 5-LOX (unknown origin)
T1 sequence (P09917 whole entry): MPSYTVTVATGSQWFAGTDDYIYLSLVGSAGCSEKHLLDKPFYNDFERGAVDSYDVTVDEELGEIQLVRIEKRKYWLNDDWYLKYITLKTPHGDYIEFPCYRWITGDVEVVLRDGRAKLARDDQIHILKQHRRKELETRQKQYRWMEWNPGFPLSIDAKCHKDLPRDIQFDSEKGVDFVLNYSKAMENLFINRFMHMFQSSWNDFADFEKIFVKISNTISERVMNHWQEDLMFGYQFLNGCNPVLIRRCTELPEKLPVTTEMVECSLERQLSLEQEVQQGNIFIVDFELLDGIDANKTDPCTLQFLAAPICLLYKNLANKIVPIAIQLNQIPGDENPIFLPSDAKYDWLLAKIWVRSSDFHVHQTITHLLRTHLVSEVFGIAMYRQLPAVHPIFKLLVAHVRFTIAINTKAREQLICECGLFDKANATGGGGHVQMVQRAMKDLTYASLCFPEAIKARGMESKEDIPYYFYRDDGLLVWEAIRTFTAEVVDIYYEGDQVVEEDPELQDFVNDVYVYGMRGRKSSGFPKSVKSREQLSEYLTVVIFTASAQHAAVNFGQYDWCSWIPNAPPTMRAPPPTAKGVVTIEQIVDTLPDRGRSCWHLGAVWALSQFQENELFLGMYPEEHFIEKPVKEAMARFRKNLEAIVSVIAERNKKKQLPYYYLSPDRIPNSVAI

[2] = molecular target: T2, Prostaglandin G/H synthase 2 (Homo sapiens, UniProt P35354); assay: Inhibition of COX2 (unknown origin)
T2 sequence (P35354 whole entry): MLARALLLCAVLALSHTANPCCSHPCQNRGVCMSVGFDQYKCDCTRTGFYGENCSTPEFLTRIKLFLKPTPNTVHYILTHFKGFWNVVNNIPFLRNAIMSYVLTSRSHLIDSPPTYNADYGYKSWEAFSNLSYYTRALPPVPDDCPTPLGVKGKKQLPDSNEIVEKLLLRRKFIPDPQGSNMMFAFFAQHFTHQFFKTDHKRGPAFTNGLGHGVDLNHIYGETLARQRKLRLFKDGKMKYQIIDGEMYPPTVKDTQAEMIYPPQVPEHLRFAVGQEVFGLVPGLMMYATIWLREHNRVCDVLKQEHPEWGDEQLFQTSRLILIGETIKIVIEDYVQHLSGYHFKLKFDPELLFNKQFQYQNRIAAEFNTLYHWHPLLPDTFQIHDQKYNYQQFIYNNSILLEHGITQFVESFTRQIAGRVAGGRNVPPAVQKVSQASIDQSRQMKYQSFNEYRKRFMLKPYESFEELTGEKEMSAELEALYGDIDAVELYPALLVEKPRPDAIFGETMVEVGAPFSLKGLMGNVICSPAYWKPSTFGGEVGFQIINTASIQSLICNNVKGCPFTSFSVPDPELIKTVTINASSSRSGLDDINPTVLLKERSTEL

Row | IC50 [1] [nM] | IC50 [2] [nM] | Compound
1 | 65 to 1250 | – | Cc1cc(Nc2ncc(-c3ccc(F)cc3)o2)cc(C)c1O
2 | 65 to 1250 | – | O=C(O)c1noc(-c2ccc(OCc3ccc4ccccc4n3)cc2)c1-c1ccc(Cl)cc1
3 | 65 to 1250 | – | CC[C@](O)(c1nnc(NCc2ccc3c(-c4ccc(F)cc4)cc(=O)oc3c2)o1)C(F)(F)F [SETILEUTON]
4 | 850 | 150 | CS(=O)(=O)c1ccc(-c2nc(SCCN(O)C(N)=O)nn2-c2ccc(Br)cc2)cc1
